Converted amounts (≈) assume the structure as drawn. The source made the active and inactive calls. The rule behind the calls is not given here.
Experiments:
Staphylococcus aureus [1] = assay: Antibacterial activity against Staphylococcus aureus assessed as bacterial growth inhibition incubated for 24 hrs by broth microdilution method; format: functional
Enterococcus faecalis = assay: Antibacterial activity against Enterococcus faecalis assessed as bacterial growth inhibition incubated for 24 hrs by broth microdilution method; format: functional
Staphylococcus aureus [2] = assay: Antibacterial activity against Staphylococcus aureus ATCC 25923 assessed as bacterial growth inhibition incubated for 24 hrs by broth microdilution method; format: functional
Staphylococcus aureus [3] = assay: Antibacterial activity against Staphylococcus aureus ATCC 29213 assessed as bacterial growth inhibition incubated for 24 hrs by broth microdilution method; format: functional
Klebsiella pneumoniae = assay: Antibacterial activity against Klebsiella pneumoniae assessed as bacterial growth inhibition incubated for 24 hrs by broth microdilution method; format: functional
Escherichia coli [4] = assay: Antibacterial activity against Escherichia coli assessed as bacterial growth inhibition incubated for 24 hrs by broth microdilution method; format: functional
Escherichia coli [5] = assay: Antibacterial activity against Escherichia coli ATCC 25922 assessed as bacterial growth inhibition incubated for 24 hrs by broth microdilution method; format: functional
Pseudomonas aeruginosa = assay: Antibacterial activity against Pseudomonas aeruginosa assessed as bacterial growth inhibition incubated for 24 hrs by broth microdilution method; format: functional
[6] = Cytotoxicity against human L02 cells assessed as cell viability at effective concentration measured after 24 hrs by MTT assay relative to control; format: toxicity, cell-based; conditions: read-out: Activity
[7] = Cytotoxicity against human L02 cells assessed as cell viability upto 0.128 mmol/L measured after 24 hrs by MTT assay relative to control; format: toxicity, cell-based; conditions: up to 0.128 mM, read-out: Activity
[8] = Cytotoxicity against HEK293T cells assessed as cell viability at 0.256 mmol/L measured after 24 hrs by MTT assay relative to control; format: toxicity, cell-based, HEK-293T; conditions: human, read-out: Activity
[9] = Hemolytic activity in human RBC at effective concentration measured after 1 hr by absorbance based assay relative to control; format: toxicity, cell-based, Erythrocyte; conditions: red blood cells (erythrocytes), read-out: Activity
Erythrocyte [10] = assay: Hemolytic activity in human RBC at greater than MIC measured for 2 to 4 hrs by absorbance based assay; format: toxicity, cell-based; conditions: time 2-4 hrs
[11] = Hemolytic activity in human RBC at 512 times MIC measured after 8 hrs by absorbance based assay relative to control; format: toxicity, cell-based, Erythrocyte; conditions: red blood cells (erythrocytes), read-out: Activity
Erythrocyte [12] = assay: Hemolytic activity against human RBC assessed as change in cell morphology at 512 times MIC measured after 8 hrs by microscopic analysis; format: toxicity, cell-based
Acinetobacter baumannii [13] = assay: Antibiofilm activity against Acinetobacter baumannii assessed as increase in biofilm eradication incubated for 24 hrs by crystal violet staining based analysis; format: functional, organism-based
Cell membrane [14] = assay: Induction of outer membrane damage in Acinetobacter baumannii at 1 to 8 times MIC incubated for 30 mins by fluorescence based assay
Cell membrane [15] = assay: Induction of inner membrane damage in Acinetobacter baumannii at 1 to 8 times MIC incubated for 30 mins by fluorescence based assay
Acinetobacter baumannii [16] = assay: Antibacterial activity against Acinetobacter baumannii assessed as reduction in metabolic activity incubated for 6 hrs by alamar blue staining based assay; format: functional, organism-based
Acinetobacter baumannii [17] = assay: Antibacterial activity against Acinetobacter baumannii assessed as decrease in LDH activity incubated for 6 hrs by LDH assay; format: functional, organism-based
Calf thymus DNA [18] = assay: Binding affinity to calf thymus DNA assessed as compound-DNA complex formation by absorbance based assay; format: nucleic-acid assay; conditions: Bos taurus
Calf thymus DNA [19] = assay: Binding affinity to calf thymus DNA assessed as binding constant, K by absorbance based assay; format: nucleic-acid assay; conditions: Bos taurus
Calf thymus DNA [20] = assay: Induction of calf thymus DNA cleavage at 0.05 mmol/L incubated for 6 hrs by agarose gel electrophoresis method; format: nucleic-acid assay; conditions: Bos taurus
Calf thymus DNA [21] = assay: Induction of calf thymus DNA cleavage at 0.05 mmol/L incubated for 6 hrs in presence of Cu(NO3)2 by agarose gel electrophoresis method; format: nucleic-acid assay; conditions: Bos taurus
Calf thymus DNA [22] = assay: Induction of calf thymus DNA cleavage at 0.05 mmol/L incubated for 6 hrs in presence of Cu2+ by agarose gel electrophoresis method; format: nucleic-acid assay; conditions: Bos taurus
Calf thymus DNA [23] = assay: Induction of calf thymus DNA cleavage at 0.05 mmol/L incubated for 6 hrs in presence of Zn2+ by agarose gel electrophoresis method; format: nucleic-acid assay; conditions: Bos taurus
Calf thymus DNA [24] = assay: Binding affinity to calf thymus DNA incubated for 5 mins by acridine orange displacement assay; format: nucleic-acid assay; conditions: Bos taurus
Calf thymus DNA [25] = assay: Binding affinity to calf thymus DNA incubated for 5 mins by DAPI displacement assay; format: nucleic-acid assay; conditions: Bos taurus
[26] = C0 in Kunming mouse at 10 mg/kg, iv measured upto 24 hrs by LC-MS analysis; format: ADME, organism-based; conditions: in vivo
[27] = Cmax in Kunming mouse at 10 mg/kg, iv measured upto 24 hrs by LC-MS analysis; format: ADME, organism-based; design: dose 10 mg/kg, time < 24 hrs, route iv; conditions: in vivo
[28] = AUC (0 to infinity) in Kunming mouse at 10 mg/kg, iv measured upto 24 hrs by LC-MS analysis; format: ADME, organism-based; design: dose 10 mg/kg, time < 24 hrs, route iv; conditions: in vivo
[29] = Volume of distribution at steady state in Kunming mouse at 10 mg/kg, iv measured upto 24 hrs by LC-MS analysis; format: ADME, organism-based; conditions: in vivo, read-out: Vdss
[30] = Clearance in Kunming mouse at 10 mg/kg, iv measured upto 24 hrs by LC-MS analysis; format: ADME, organism-based; conditions: in vivo
[31] = AUMC (0 to infinity) in Kunming mouse at 10 mg/kg, iv measured upto 24 hrs by LC-MS analysis; format: ADME, organism-based; conditions: in vivo
[32] = MRT (0 to t) in Kunming mouse at 10 mg/kg, iv measured upto 24 hrs by LC-MS analysis; format: ADME, organism-based; conditions: in vivo
[33] = MRT (0 to infinity) in Kunming mouse at 10 mg/kg, iv measured upto 24 hrs by LC-MS analysis; format: ADME, organism-based; conditions: in vivo
[34] = Half life in Kunming mouse at 10 mg/kg, po measured upto 24 hrs by LC-MS analysis; format: ADME, organism-based; conditions: in vivo
[35] = AUC (0 to t) in Kunming mouse at 10 mg/kg, po measured upto 24 hrs by LC-MS analysis; format: ADME, organism-based; design: time < 24 hrs, dose 10 mg/kg, route po; conditions: in vivo
[36] = AUC (0 to infinity) in Kunming mouse at 10 mg/kg, po measured upto 24 hrs by LC-MS analysis; format: ADME, organism-based; design: dose 10 mg/kg, time < 24 hrs, route po; conditions: in vivo
[37] = Volume of distribution in Kunming mouse at 10 mg/kg, po measured upto 24 hrs by LC-MS analysis; format: ADME, organism-based; conditions: in vivo
[38] = Clearance in Kunming mouse at 10 mg/kg, po measured upto 24 hrs by LC-MS analysis; format: ADME, organism-based; conditions: in vivo
[39] = AUMC (0 to t) in Kunming mouse at 10 mg/kg, po measured upto 24 hrs by LC-MS analysis; format: ADME, organism-based; conditions: in vivo
[40] = AUMC (0 to infinity) in Kunming mouse at 10 mg/kg, po measured upto 24 hrs by LC-MS analysis; format: ADME, organism-based; conditions: in vivo
[41] = MRT (0 to t) in Kunming mouse at 10 mg/kg, po measured upto 24 hrs by LC-MS analysis; format: ADME, organism-based; conditions: in vivo
[42] = MRT (0 to infinity) in Kunming mouse at 10 mg/kg, po measured upto 24 hrs by LC-MS analysis; format: ADME, organism-based; conditions: in vivo
[43] = Oral bioavailability in Kunming mouse at 10 mg/kg measured upto 24 hrs by LC-MS analysis; format: ADME, organism-based; conditions: in vivo
Acinetobacter baumannii [44] = assay: Antibacterial activity against Acinetobacter baumannii infected in mouse assessed as log reduction in viable bacterial count at 10 mg/kg measured for 12 hrs; format: functional
Acinetobacter baumannii [45] = assay: Antibacterial activity against Acinetobacter baumannii infected in mouse assessed as log reduction in viable bacterial count at 30 mg/kg measured for 12 hrs; format: functional

## OCCN(CCO)c1nccc(-n2cncn2)n1
Staphylococcus aureus [1]
  MIC: 512 µM (≈ 128 µg/mL)
Enterococcus faecalis
  MIC: 8 µM (≈ 2 µg/mL)
Staphylococcus aureus [2]
  MIC: 128 µM (≈ 32 µg/mL)
Staphylococcus aureus [3]
  MIC: 1020 µM (≈ 256 µg/mL)
Klebsiella pneumoniae
  MIC: 8 µM (≈ 2 µg/mL)
Escherichia coli [4]
  MIC: 1020 µM (≈ 256 µg/mL)
Escherichia coli [5]
  MIC: 1 µM (≈ 0.25 µg/mL)
Pseudomonas aeruginosa
  MIC: 1 µM (≈ 0.25 µg/mL)
[6]
  viability at 24 h: > 75%
[7]
  viability at 24 h: 85%
[8]
  viability at 24 h, 256 µM: 80%
[9]
  hemolysis at 1 h: < 5%
Erythrocyte [10]
  Activity: Non-Toxic
[11]
  hemolysis at 8 h, 512 times MIC: 1.5%
Erythrocyte [12]
  Activity: Non-Toxic
Acinetobacter baumannii [13]
  Activity: Dose-Dependent Effect
Cell membrane [14]
  Activity: inactive
Cell membrane [15]
  Activity: inactive
Acinetobacter baumannii [16]
  Activity: Dose-Dependent Effect
Acinetobacter baumannii [17]
  Activity: Dose-Dependent Effect
Calf thymus DNA [18]
  Activity: Active
Calf thymus DNA [19]
  K: 1.7 10^3L/mol
Calf thymus DNA [20]
  Activity: inactive
Calf thymus DNA [21]
  Activity: inactive
Calf thymus DNA [22]
  Activity: inactive
Calf thymus DNA [23]
  Activity: inactive
Calf thymus DNA [24]
  Activity: inactive
Calf thymus DNA [25]
  Activity: Dose-Dependent Effect
[26]
  C0 at 24 h: 2590 ng/mL
[27]
  Cmax: 1990 ng/mL
[28]
  AUC: 2281 ng·h/mL
[29]
  Vd: 2.1 L/kg
[30]
  CL: 8.43 mL/min/kg
[31]
  AUMC: 8598 hr.hr.ng/ml
[32]
  MRT last at 24 h: 2.61 h
[33]
  MRT inf: 3.98 h
[34]
  half-life: 4.39 h
[35]
  AUC(0-t) at 24 h: 7870 ng·h/mL
[36]
  AUC: 8073 ng·h/mL
[37]
  Vd: 7.89 L/kg
[38]
  CL/F: 20.7 mL/min/kg
[39]
  AUMCt: 31290 hr.hr.ng/ml
[40]
  AUMC: 37723 hr.hr.ng/ml
[41]
  MRT last at 24 h: 3.97 h
[42]
  MRT inf: 4.67 h
[43]
  F: 35.41%
Acinetobacter baumannii [44]
  log(activity): 1.6
Acinetobacter baumannii [45]
  log(activity): 3.5

Source: ChEMBL document CHEMBL5380831, “Azolylpyrimidinediols as Novel Structural Scaffolds of DNA-Groove Binders against Intractable Acinetobacter baumannii” (J Med Chem, 2023)
